pIC50: −log10 of the molar value. Read-outs that look alike come from different tables or passages of the source.
How the values were obtained:
adenosine A1 receptor = molecular target: T1, adenosine A1 receptor (Rattus norvegicus, UniProt P25099); test: Adenosine A1 receptor binding (RBA-1), displacement of [3H]-CHA
T1 construct: Whole brain minus cerebellum and brainstem from male Long Evans rats (150-200 g) was homogenized; from tissue; host or cells: rat whole brain minus cerebellum and brainstem, male Long Evans
T1 sequence (P25099 1-326): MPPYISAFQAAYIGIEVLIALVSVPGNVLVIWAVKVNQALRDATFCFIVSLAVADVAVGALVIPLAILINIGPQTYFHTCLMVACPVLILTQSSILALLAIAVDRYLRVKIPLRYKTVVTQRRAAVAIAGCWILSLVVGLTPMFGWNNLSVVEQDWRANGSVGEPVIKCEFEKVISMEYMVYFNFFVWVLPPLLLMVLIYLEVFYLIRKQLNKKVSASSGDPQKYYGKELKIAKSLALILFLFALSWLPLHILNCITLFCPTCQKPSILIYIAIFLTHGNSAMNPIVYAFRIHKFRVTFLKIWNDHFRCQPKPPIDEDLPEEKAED
Description: Whole brain minus cerebellum and brainstem from male Long Evans rats (150-200 g) was homogenized in 30 volumes of ice-cold 0.05M Tris-HCl buffer pH 7.7 using a Brinkman Polytron PT-10, (setting number 6 for 20 seconds) and centrifuged for ten minutes at 20,000×g (Sorvall RC-2), 4° C. The supernatant was discarded, and the pellet was resuspended and centrifuged as before. The pellet was resuspended in 20 ml Tris-HCl buffer containing two International Units/ml of adenosine deaminase (Sigma type III from calf intestinal mucosa), incubated at 37° C. for 30 minutes, then subsequently at 0° C. for ten minutes. The homogenate was again centrifuged, and the final pellet was resuspended in ice-cold 0.05M Tris-HCl buffer pH 7.7 to a concentration of 20 mg/ml original wet tissue weight and used immediately.
Tissue homogenate (10 mg/ml) was incubated in 0.05M Tris-HCl buffer pH 7.7 containing 1.0 nM [^3 H]-N^6 -cyclohexyladenosine [^3 H]-CHA) with or without test agents in triplicate for one hour at 25° C. Incubation volume was 2 ml. Unbound [^3 H]-CHA was separated by rapid filtration under reduced pressure through Whatman glass fiber (GF/B) filters. The filters were rinsed three times with 5 ml of ice cold 0.05M Tris-HCl buffer pH 7.7. The radio-labeled ligand retained on the filter was measured by liquid scintillation spectrophotometry after shaking the filters for one hour or longer on a mechanical shaker in 10 ml of Beckman Ready-Solv HP scintillation cocktail.
Nonspecific binding was defined as the binding which occurred in the presence of 1 mM theophylline. […] The Scatchard plot was calculated by linear regression of the line obtained by plotting the amount of radioligand bound (pmoles/gram of tissue) versus [formula] Since the amount of radioligand bound was a small fraction of the total amount added, free radioligand was defined as the concentration (nM) of radioligand added to the incubation mixture. The Hill coefficient was calculated by linear regression of the line obtained by plotting the log of the bound radioligand vs the log of the [formula] The maximal number of binding sites (Bmax) was calculated from the Scatchard plot.

Swiss-Webster male mice = test: Mouse Activity and Screen Test (MAST): screen test failure; format: in vivo; details: 1 hour prior to testing
Description: Nine unfasted Swiss-Webster male mice weighing 20-30 g are equally divided into three groups for each drug dose to be tested. That is, data for each dose level was generated by three separate groups of three mice each. A minimum of three dose levels (10, 30, and 100 mg/kg) are tested for each drug. Treatments are administered intraperitoneally one hour prior to testing. All dosages are calculated as parent compound and given in volumes of 10 ml/kg. Compounds are dissolved or suspended in 0.2% Methocel. Control animals are injected with Methocel. Testing: A two part testing procedure is started one hour postinjection. First, the screen test (ST) is performed (see Pharmac. Biochem. Behav. 6, 351-353, 1977). Briefly this test consists of placing mice on individual wire screens which are then rotated 180 degrees at the start of a 60 second observation period. The number of mice falling off the inverted screen is recorded. Data: The data obtained from the screen test are expressed as percent of mice falling off the screen. Data derived from locomotor activity of drug treated mice are compared to the activity of vehicle treated animals and are expressed as percent inhibition of spontaneous locomotion. All percentages reported for inhibition of locomotion (LI) are based upon data accumulated for one hour. Both phases of testing are graded: A=60-100%; C=31-59%; and N=0-30%. An overall dose rating is obtained by the following criteria: […]

male Swiss-Webster mice = test: Antiwrithing (AW) test, acetic acid; format: in vivo; details: Mus musculus, sc; subcutaneous, 20 minutes before acetic acid i.p.; read-out: ED50, suppression of writhing by 50% relative to vehicle controls
Description: The antiwrithing (AW) test provides preliminary assessment of compounds with potential analgesic activity. The test is performed in male Swiss-Webster mice. Compounds are administered subcutaneously in aqueous 0.2% methylcellulose or other appropriate vehicles in volumes of 10 ml/kg. Dosages represent active moiety.
Acetic acid (0.6%, 10 ml/kg) is injected intraperitoneally 20 minutes after administration of the adenosine agonist. Writhing movements are counted for five minutes starting seven minutes after the acetic acid injection. Writhing is defined as abdominal constriction and stretching of the body and hind legs with concave arching of the back. Data are expressed as ED50 values, where the ED50 is the dose necessary to suppress writhing by 50% relative to vehicle controls. ED50 values are calculated by nonlinear regression analysis.

[1] = 1.0 nM [3H]-CHA, rat whole brain minus cerebellum and brainstem, read-out: RBA-1 (IC50, adenosine A1 receptor affinity)

| SMILES | pIC50 (adenosine A1 receptor; [1]) | Screen Test Failure (Swiss-Webster male mice; 0.3 mg/kg i.p.) | Screen Test Failure (Swiss-Webster male mice; 1.0 mg/kg i.p.) | Screen Test Failure (Swiss-Webster male mice; 3.0 mg/kg i.p.) | Screen Test Failure (Swiss-Webster male mice; 10 mg/kg i.p.) | Screen Test Failure (Swiss-Webster male mice; 30 mg/kg i.p.) | Screen Test Failure (Swiss-Webster male mice; 100 mg/kg i.p.) | ED50 (male Swiss-Webster mice) | Screen Test Failure (Swiss-Webster male mice; 0.1 mg/kg i.p.) | pIC50 (adenosine A1 receptor) | Screen Test Failure (Swiss-Webster male mice; 0.03 mg/kg i.p.) |
| --- | --- | --- | --- | --- | --- | --- | --- | --- | --- | --- | --- |
| OCC(O)CNc1ncnc2c1ncn2[C@@H]1O[C@H](CO)[C@@H](O)[C@@H]1O (stereo partly drawn) [Example 1, (R,S)-N^6 [2,3-Dihydroxypropyl]adenosine] | 8.05 | 100% | 100% | 100% | 100% | 100% | 100% | 0.07 mg/kg | 8% | – | – |
| OC[C@@H](O)CNc1ncnc2c1ncn2[C@@H]1O[C@H](CO)[C@@H](O)[C@H]1O [Example 3] | – | 0% | 88% | 100% | 100% | 100% | – | – | 0% | 7.34 | 0% |

More lines, main results first:

| pIC50 (adenosine A1 receptor; [1]) | SMILES | Screen Test Failure (Swiss-Webster male mice; 0.3 mg/kg i.p.) | Screen Test Failure (Swiss-Webster male mice; 1.0 mg/kg i.p.) | Screen Test Failure (Swiss-Webster male mice; 3.0 mg/kg i.p.) | Screen Test Failure (Swiss-Webster male mice; 10 mg/kg i.p.) | Screen Test Failure (Swiss-Webster male mice; 30 mg/kg i.p.) | Screen Test Failure (Swiss-Webster male mice; 100 mg/kg i.p.) | ED50 (male Swiss-Webster mice) | Screen Test Failure (Swiss-Webster male mice; 0.1 mg/kg i.p.) | pIC50 (adenosine A1 receptor) | Screen Test Failure (Swiss-Webster male mice; 0.03 mg/kg i.p.) |
| --- | --- | --- | --- | --- | --- | --- | --- | --- | --- | --- | --- |
| 6.37 | CC1(C)OCC(CNc2ncnc3c2ncn3[C@@H]2O[C@H](CO)[C@@H](O)[C@H]2O)O1 (stereo partly drawn) [Example 4, (R,S)-N^6-[2,3Dihydroxypropylisopropylidene]adenosine] | 0% | 0% | 0% | 66% | 99% | 99% | – | – | – | – |
| 6.36 | CC1(C)OC[C@@H](CNc2ncnc3c2ncn3[C@@H]2O[C@H](CO)[C@@H](O)[C@H]2O)O1 [Example 5, (R)-N^6-[2,3-Dihydroxypropylisopropylidene]-adenosine] | 0% | 11% | 11% | 77% | 100% | – | – | – | – | – |
| 7.47 | Nc1nc(NCC(O)CO)c2ncn([C@@H]3O[C@H](CO)[C@@H](O)[C@H]3O)c2n1 (stereo partly shown) [Example 8] | 0% | 88% | 99% | 99% | 99% | 99% | – | – | – | – |
